Laboratory results: patent US20240254115A1 (ACONDICIONAMIENTO TARRASENSE, priority 2021, published 2024)

Legend:
human σ1 receptor = molecular target: T1, human σ1 receptor (Homo sapiens, UniProt Q99720); assay: Human σ1 receptor radioligand assay; conditions: transfected HEK-293 membranes, 5 nM [3H](+)-pentazocine, 37° C. 120 minutes; + may also stand for 1-50% inhibition at 1 or 10 μM; read-out: Binding σ-1 Ki
T1 construct: expressed in transfected cells; host or cells: HEK-293
Outline: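 Ki was derived from five test concentrations, or % inhibition was measured at a single 1 or 10 μM dose, against 5 nM [3H](+)-pentazocine. Incubation was 120 min at 37° C in 50 mM Tris-HCl pH 8 with 7 μg HEK-293 membranes, and 10 μM haloperidol set non-specific binding. Bound radioactivity was counted after filtration.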

human σ2/TMEM97 receptor = molecular target: T2, human σ2/TMEM97 receptor (Homo sapiens, UniProt Q5BJF2); assay: Binding assay to human σ2/TMEM97 receptor; conditions: transfected HEK-293 membranes, 10 nM [3H]-DTG, 25° C. 120 minutes; + may also stand for 1-50% inhibition at 1 or 10 μM; read-out: Binding σ-2 Ki
T2 construct: expressed in transfected cells; host or cells: HEK-293
T2 sequence (Q5BJF2 whole entry): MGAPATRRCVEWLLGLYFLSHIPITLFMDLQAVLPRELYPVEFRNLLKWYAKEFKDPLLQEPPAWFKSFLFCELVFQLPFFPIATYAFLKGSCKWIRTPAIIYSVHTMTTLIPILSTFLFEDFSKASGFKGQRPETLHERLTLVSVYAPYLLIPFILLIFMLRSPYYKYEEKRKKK
Outline: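 Membranes from transfected HEK-293 cells (15 µg) were incubated with 10 nM [3H]-DTG in 50 mM Tris-HCl pH 8.0 for 120 min at 25 °C, with 10 µM haloperidol defining non-specific binding. Filtration and scintillation counting followed. Compounds tested as % inhibition at 1 or 10 µM, or at five concentrations for Ki.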

T1 sequence (Q99720 whole entry): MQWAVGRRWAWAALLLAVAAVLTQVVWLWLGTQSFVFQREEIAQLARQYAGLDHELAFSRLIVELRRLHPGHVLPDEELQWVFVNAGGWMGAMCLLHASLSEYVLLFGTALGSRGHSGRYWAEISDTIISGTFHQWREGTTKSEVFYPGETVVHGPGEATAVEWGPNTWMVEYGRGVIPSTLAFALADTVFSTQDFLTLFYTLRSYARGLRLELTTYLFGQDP

Row | Ki (human σ1 receptor) [nM] | Ki (human σ2/TMEM97 receptor) [nM] | SMILES
1 | 100 to 500 | < 100 | O=S(=O)(c1ccc(N2CCOCC2)nc1)N1CCCC2(CCN(Cc3ccccc3)CC2)C1 [Example 61, 4-(5-((9-Benzyl-2,9-diazaspiro[5.5]undecan-2-yl)sulfonyl)pyridin-2-yl)morpholine]
2 | 100 to 500 | 100 to 500 | O=C1OCCN1c1ccc(S(=O)(=O)N2CCC3(CCN(Cc4ccccc4F)CC3)C2)cn1 [Example 163, 3-(5-((8-(2-Fluorobenzyl)-2,8-diazaspiro[4.5]decan-2-yl)sulfonyl)pyridin-2-yl)oxazolidin-2-one]
3 | < 100 | < 100 | O=C1OCCN1c1ccc(S(=O)(=O)N2CCCC3(CCN(Cc4ccccc4F)CC3)C2)cn1 [Example 159, 3-(5-((9-(2-Fluorobenzyl)-2,9-diazaspiro[5.5]undecan-2-yl)sulfonyl)pyridin-2-yl)oxazolidin-2-one]
4 | 100 to 500 | < 100 | N#Cc1ccc(CN2CCC3(CCCN(S(=O)(=O)c4ccc(N5CCOCC5)nc4)C3)CC2)cc1F [Example 62, 2-Fluoro-4-((2-((6-morpholinopyridin-3-yl)sulfonyl)-2,9-diazaspiro[5.5]undecan-9-yl)methyl)benzonitrile]
5 | < 100 | < 100 | CN(CC(C)(C)C)C1CCN(S(=O)(=O)c2ccc(N3CCC(F)(F)CC3)nc2)CC1 [Example 100, 1-((6-(4,4-Difluoropiperidin-1-yl)pyridin-3-yl)sulfonyl)-N-methyl-N-neopentylpiperidin-4-amine]
6 | < 100 | > 1000 | N#Cc1ccc(CN2CC[C@H](NS(=O)(=O)c3ccc(N4CCOCC4)nc3)C2)cc1 [Example 39, (S)-N-(1-(4-Cyanobenzyl)pyrrolidin-3-yl)-6-morpholinopyridine-3-sulfonamide]
7 | 100 to 500 | < 100 | CN(Cc1ccccc1)[C@H]1CC[C@H](NS(=O)(=O)c2ccc(N3CCC(F)(F)CC3)nc2)CC1 [Example 175, N-((1r,4r)-4-(Benzyl(methyl)amino)cyclohexyl)-6-(4,4-difluoropiperidin-1-yl)pyridine-3-sulfonamide]
8 | < 100 | < 100 | O=C1OCCN1c1ccc(S(=O)(=O)N2CCC3(CCN(CC4CCOCC4)CC3)C2)cn1 [Example 153, 3-(5-((8-((Tetrahydro-2H-pyran-4-yl)methyl)-2,8-diazaspiro[4.5]decan-2-yl)sulfonyl)pyridin-2-yl)oxazolidin-2-one]
9 | < 100 | < 100 | CCC(=O)Nc1ccc(S(=O)(=O)N2CCCC3(CCN(CCC(C)(C)C)CC3)C2)cn1 [Example 106, N-(5-((9-(3,3-Dimethylbutyl)-2,9-diazaspiro[5.5]undecan-2-yl)sulfonyl)pyridin-2-yl)propionamide]
10 | < 100 | < 100 | CCc1ccc(S(=O)(=O)N2CCC3(CCN(CCC(C)(C)C)CC3)CC2)cn1 [Example 109, 3-(3,3-Dimethylbutyl)-9-((6-ethylpyridin-3-yl)sulfonyl)-3,9-diazaspiro[5.5]undecane]
11 | < 100 | < 100 | O=S(=O)(c1ccc(N2CCC(F)(F)CC2)nc1)N1CCCC2(CCN(CC3CCOCC3)CC2)C1 [Example 101, 2-((6-(4,4-Difluoropiperidin-1-yl)pyridin-3-yl)sulfonyl)-9-((tetrahydro-2H-pyran-4-yl)methyl)-2,9-diazaspiro[5.5]undecane]
12 | < 100 | < 100 | CC(C)(C)CCN1CCC2(CCCN(S(=O)(=O)c3ccc(N4CCC(F)(F)CC4)nc3)C2)CC1 [Example 96, 2-((6-(4,4-Difluoropiperidin-1-yl)pyridin-3-yl)sulfonyl)-9-(3,3-dimethylbutyl)-2,9-diazaspiro[5.5]undecane]
13 | 100 to 500 | < 100 | CC(C)(C)CCN1CCC2(CC1)CCN(S(=O)(=O)c1ccc(N3CCOCC3)nc1)C2 [Example 79, 4-(5-((8-(3,3-Dimethylbutyl)-2,8-diazaspiro[4.5]decan-2-yl)sulfonyl)pyridin-2-yl)morpholine]
14 | 500 to 1000 | > 1000 | N#Cc1cccc(CN2CCC(NS(=O)(=O)c3ccc(N4CCOCC4)nc3)CC2)c1 [Example 9, N-(1-(3-Cyanobenzyl)piperidin-4-yl)-6-morpholinopyridine-3-sulfonamide]
15 | < 100 | > 1000 | N#Cc1ccc(CN2CC[C@@H](NS(=O)(=O)c3ccc(N4CCOCC4)nc3)C2)cc1 [Example 37, (R)-N-(1-(4-Cyanobenzyl)pyrrolidin-3-yl)-6-morpholinopyridine-3-sulfonamide]
16 | < 100 | < 100 | O=C1OCCN1c1ccc(S(=O)(=O)N2CCCC3(CCN(CC4CCOCC4)CC3)C2)cn1 [Example 158, 3-(5-((9-((Tetrahydro-2H-pyran-4-yl)methyl)-2,9-diazaspiro[5.5]undecan-2-yl)sulfonyl)pyridin-2-yl)oxazolidin-2-one]

Row | Ki (human σ1 receptor) [nM] | Ki (human σ2/TMEM97 receptor) [nM] | SMILES
17 | 500 to 1000 | < 100 | CC(C)CN1CCC2(CC1)CCN(S(=O)(=O)c1ccc(C(F)(F)F)nc1)CC2 [Example 91, 3-Isobutyl-9-((6-(trifluoromethyl)pyridin-3-yl)sulfonyl)-3,9-diazaspiro[5.5]undecane]
18 | > 1000 | < 100 | COc1ccc(CNC[C@H]2CCCN(S(=O)(=O)c3ccc(N4CCOCC4)nc3)C2)cn1 [Example 33, (R)-1-(6-Methoxypyridin-3-yl)-N-((1-((6-morpholinopyridin-3-yl)sulfonyl)piperidin-3-yl)methyl) methanamine]
19 | > 1000 | 100 to 500 | CN(Cc1ccncc1)[C@H]1CC[C@H](NS(=O)(=O)c2ccc(N3CCOCC3)nc2)CC1 [Example 60, N-((1r,4r)-4-(Methyl(pyridin-4-ylmethyl)amino)cyclohexyl)-6-morpholinopyridine-3-sulfonamide]
20 | 100 to 500 | < 100 | CC(C)(C)CCN1CCC2(CCCN(S(=O)(=O)c3ccc(N4CCS(=O)(=O)CC4)nc3)C2)CC1 [Example 118, 4-(5-((9-(3,3-Dimethylbutyl)-2,9-diazaspiro[5.5]undecan-2-yl)sulfonyl)pyridin-2-yl)thiomorpholine 1,1-dioxide]
21 | < 100 | > 1000 | O=S(=O)(N[C@H]1CCN(Cc2cccc(F)c2)C1)c1ccc(N2CCOCC2)nc1 [Example 35, (S)—N-(1-(3-Fluorobenzyl)pyrrolidin-3-yl)-6-morpholinopyridine-3-sulfonamide]
22 | > 1000 | < 100 | CN(Cc1ccccc1F)[C@H]1CC[C@H](NS(=O)(=O)c2ccc(N3CCOCC3)nc2)CC1 [Example 56, N-((1r,4r)-4-((2-Fluorobenzyl)(methyl)amino)cyclohexyl)-6-morpholinopyridine-3-sulfonamide]
23 | > 1000 | > 1000 | CN(Cc1cccnc1)[C@H]1CC[C@H](NS(=O)(=O)c2ccc(N3CCOCC3)nc2)CC1 [Example 59, N-((1r,4r)-4-(Methyl(pyridin-3-ylmethyl)amino)cyclohexyl)-6-morpholinopyridine-3-sulfonamide]
24 | > 1000 | > 1000 | O=S(=O)(N[C@H]1CC[C@H](NCc2ccncc2)CC1)c1ccc(N2CCOCC2)nc1 [Example 55, 6-Morpholino-N-((1r,4r)-4-((pyridin-4-ylmethyl)amino)cyclohexyl)pyridine-3-sulfonamide]
25 | > 1000 | < 100 | CN(Cc1ccc(F)cc1)[C@H]1CC[C@H](NS(=O)(=O)c2ccc(N3CCOCC3)nc2)CC1 [Example 28, N-((1r,4r)-4-((4-Fluorobenzyl)(methyl)amino)cyclohexyl)-6-morpholinopyridine-3-sulfonamide]
26 | < 100 | > 1000 | CN([C@@H]1CCN(Cc2ccccc2)C1)S(=O)(=O)c1ccc(N2CCOCC2)nc1 [Example 5, (R)-N-(1-Benzylpyrrolidin-3-yl)-N-methyl-6-morpholinopyridine-3-sulfonamide]
27 | < 100 | < 100 | CC(C)(C)CCN1CCC2(CC1)CCN(S(=O)(=O)c1ccc(N3CCC(F)(F)CC3)nc1)C2 [Example 80, 2-((6-(4,4-Difluoropiperidin-1-yl)pyridin-3-yl)sulfonyl)-8-(3,3-dimethylbutyl)-2,8-diazaspiro[4.5]decane]
28 | < 100 | < 100 | N#Cc1cc(CN2CCC3(CCCN(S(=O)(=O)c4ccc(N5CCOC5=O)nc4)C3)CC2)ccc1F [Example 161, 2-Fluoro-5-((2-((6-(2-oxooxazolidin-3-yl)pyridin-3-yl)sulfonyl)-2,9-diazaspiro[5.5]undecan-9-yl)methyl)benzonitrile]
29 | > 1000 | 100 to 500 | O=S(=O)(c1ccc(N2CCOCC2)nc1)N1CCC[C@H](CNCc2ccc(O)nc2)C1 [Example 64, (R)-5-((((1-((6-Morpholinopyridin-3-yl)sulfonyl)piperidin-3-yl)methyl)amino)methyl)pyridin-2-ol]
30 | < 100 | < 100 | CC(C)(C)CCN1CCC2(CC1)CCN(S(=O)(=O)c1ccc(N3CCC4(CCCO4)CC3)nc1)C2 [Example 81, 8-(5-((8-(3,3-Dimethylbutyl)-2,8-diazaspiro[4.5]decan-2-yl)sulfonyl)pyridin-2-yl)-1-oxa-8-azaspiro[4.5]decane]
31 | > 1000 | < 100 | CN(Cc1ccc(F)c(F)c1)[C@H]1CC[C@H](NS(=O)(=O)c2ccc(N3CCC4(CCOC4)CC3)nc2)CC1 [Example 180, N-((1r,4r)-4-((3,4-Difluoro-benzyl)(methyl)amino)cyclohexyl)-6-(2-oxa-8-azaspiro[4.5]decan-8-yl)pyridine-3-sulfonamide]
